The text below walks through data of ChEMBL document CHEMBL1201862, “PubChem BioAssay data set” (2004).

The source made the active and inactive calls.

The target of test [1] is T1, Type-1 angiotensin II receptor (Homo sapiens, UniProt P30556).
T1 sequence (P30556 whole entry): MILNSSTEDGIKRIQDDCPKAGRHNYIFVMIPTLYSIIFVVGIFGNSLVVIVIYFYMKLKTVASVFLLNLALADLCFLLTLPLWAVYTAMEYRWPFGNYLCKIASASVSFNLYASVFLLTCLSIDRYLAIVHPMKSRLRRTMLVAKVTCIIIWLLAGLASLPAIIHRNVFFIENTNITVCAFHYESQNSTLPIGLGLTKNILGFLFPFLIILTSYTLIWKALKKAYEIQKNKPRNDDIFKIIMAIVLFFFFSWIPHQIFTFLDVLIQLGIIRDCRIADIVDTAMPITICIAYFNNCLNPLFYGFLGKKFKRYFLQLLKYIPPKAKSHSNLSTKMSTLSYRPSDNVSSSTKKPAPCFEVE
The test can be described thus: agonist activity at AGTR1 – cell-based, uHTS hits, selectivity assay for APJ receptor agonist project, dose response (AID 488865).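 Also: beta-arrestin recruitment to AT1 measured by enzyme fragment complementation luminescence.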 In kind it is functional.

In test [2] the test system is Vero. The test can be described thus: Vero 76 cell viability after compound exposure – Vero 76 cells, synthesized analogs, cytotoxicity control for West Nile virus antiviral project, SAR follow-up (AID 2414). In kind it is functional. The settings on record: Chlorocebus sabaeus.
Test [3] has as its system Vero. The test can be described thus: Vero cell viability after compound exposure – synthesized analogs, set II, cytotoxicity control for West Nile virus antiviral project, SAR follow-up (AID 2402). It is filed as functional. The following applies: Chlorocebus sabaeus.
Test [4] has as its system Vero. The test can be described thus: host cell viability loss, Vero E6 – synthesized analogs, cytotoxicity control for West Nile virus antiviral project, SAR follow-up (AID 2244). It is filed as functional. The following applies: Chlorocebus sabaeus.
Test [5] is described as follows: A Cell Based Assay for the Identification of Probe candidate Compounds with Anti- Venezuelan Equine Encephalitis virus. [Related pubchem assays: 2409, 2419, 1621, 2238, 2405, 2024, 2065, 2402, 2414, 1635, 1650, 2244 ]. It is filed as functional.
Test [6] concerns Vero. The test can be described thus: antiviral protection of cells from WNV – synthesized analogs, SAR follow-up (AID 2238). In kind it is functional, cell-based. The following applies: Chlorocebus sabaeus.
For test [7], the system named is Vero. The test can be described thus: antiviral activity against WNV, CPE read-out – cell-based (AID 2419). It is filed as functional. The following applies: Chlorocebus sabaeus.
The target of a further test is ORF 73 (Human herpesvirus 8, UniProt O40947). The experiment in a line: KSHV LANA DNA-binding disruption – biochemical, fluorescence polarization, cherry-picked samples, dose response (AID 504725).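 Also: fluorescence polarization of a labeled DNA duplex reporting LANA DNA binding; potency is for inhibitors that block LANA binding to the DNA.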 The arrangement: species or system Human gammaherpesvirus 8. (In general: In fluorescence polarisation assays a small probe gives low polarisation when free and higher when bound to something large.)

Test [8] addresses T2, Carboxy-terminal domain RNA polymerase II polypeptide A small phosphatase 1 (Homo sapiens, UniProt Q9GZU7).
T2 sequence (Q9GZU7 whole entry): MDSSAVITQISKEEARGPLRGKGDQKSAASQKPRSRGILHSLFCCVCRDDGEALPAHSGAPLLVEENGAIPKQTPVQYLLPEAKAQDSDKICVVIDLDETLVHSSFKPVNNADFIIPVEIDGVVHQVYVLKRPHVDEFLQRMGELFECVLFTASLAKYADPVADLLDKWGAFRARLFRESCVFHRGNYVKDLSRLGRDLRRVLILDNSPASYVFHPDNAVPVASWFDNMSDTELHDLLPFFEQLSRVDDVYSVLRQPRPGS
The experiment in a line: CTDSP1 inhibitors, concentration-response, biochemical, absorbance readout, ultra-high-throughput screen actives (AID 540297). In kind it is functional.

The nature of test [9]: viability of uninfected HEp-2 cells – cell-based, HTS, cytotoxicity control for RSV inhibitor project, dose response (AID 2410). It is filed as functional. The following applies: human respiratory syncytial virus.
For test [10], the target named is Lysosomal acid glucosylceramidase (Homo sapiens, UniProt P04062). The experiment in a line: Dose response cell-based high throughput screening assay to identify enhancers of beta-glucosidase activity. [Related pubchem assays: 784 ]. In kind it is functional.
The subject of another test is HT-29. The test can be described thus: Late-stage luminescence-based cell-based dose response assay to identify inhibitors of NADPH oxidase 1 (NOX1): Cytotoxicity assay 2. It is filed as functional. The settings on record: Homo sapiens.
The target in test [11] is Alpha-2C adrenergic receptor (Homo sapiens, UniProt P18825). The experiment in a line: Late-stage radioligand binding dose response assay to identify inhibitors of NADPH oxidase 1 (NOX1): PDSP screen Ki Set 2. [Related pubchem assays (depositor defined):AID1792, AID1796, AID1823, AID2532, AID2538, AID2539, AID2541, AID2545, AID2556, AID2664, AID2752, AID2773, AID2808, AID2819, AID434953, AID434974, AID434992, AID434993, AID434997 ….

For test [12], the target named is 5-hydroxytryptamine receptor 2B (Homo sapiens, UniProt P41595). The description is as above.
Test [13] concerns the target Kappa-type opioid receptor (Homo sapiens, UniProt P41145). Described as above.
Another test addresses D(3) dopamine receptor (Homo sapiens, UniProt P35462). The description is as above.
Test [14] has as its target Muscarinic acetylcholine receptor M1 (Homo sapiens, UniProt P11229). Described as above.
In test [15] the target is Alpha-2B adrenergic receptor (Homo sapiens, UniProt P18089). The description is as above.
For test [16], the target named is Muscarinic acetylcholine receptor M2 (Homo sapiens, UniProt P08172). The description is as above.
Test [17] addresses Alpha-2A adrenergic receptor (Homo sapiens, UniProt P08913). Described as above.
For test [18], the target named is T3, Rac GTPase-activating protein 1 (Homo sapiens, UniProt Q9H0H5).
T3 sequence (Q9H0H5 whole entry): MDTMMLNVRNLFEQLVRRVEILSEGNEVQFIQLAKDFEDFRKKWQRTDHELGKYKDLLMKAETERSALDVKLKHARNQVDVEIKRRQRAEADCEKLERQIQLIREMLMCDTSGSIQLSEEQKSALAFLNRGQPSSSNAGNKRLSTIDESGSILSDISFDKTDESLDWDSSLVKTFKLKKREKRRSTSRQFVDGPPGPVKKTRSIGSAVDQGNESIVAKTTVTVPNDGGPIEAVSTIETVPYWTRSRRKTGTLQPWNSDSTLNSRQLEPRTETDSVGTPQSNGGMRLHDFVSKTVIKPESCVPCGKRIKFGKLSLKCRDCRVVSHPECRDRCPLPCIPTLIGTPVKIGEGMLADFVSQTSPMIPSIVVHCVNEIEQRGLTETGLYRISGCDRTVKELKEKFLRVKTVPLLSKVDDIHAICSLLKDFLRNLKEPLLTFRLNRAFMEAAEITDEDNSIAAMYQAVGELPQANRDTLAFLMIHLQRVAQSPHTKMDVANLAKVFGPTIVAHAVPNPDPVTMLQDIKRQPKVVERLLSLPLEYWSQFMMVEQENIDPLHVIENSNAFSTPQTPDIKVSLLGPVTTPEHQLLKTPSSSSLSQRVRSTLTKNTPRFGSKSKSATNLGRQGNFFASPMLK
The experiment in a line: blockers of MgcRacGAP-driven Rac1 GTP hydrolysis – biochemical, ADP Hunter fluorescence, primary and confirmatory, confirmation (AID 624330). In kind it is functional.

Test [19] addresses Mannose-6-phosphate isomerase (Homo sapiens, UniProt P34949). The experiment in a line: MPI enzyme activity inhibition – biochemical, fluorescence intensity, coupled assay, primary screen (AID 1209).
A further test deals with CAAX prenyl protease 2 (Saccharomyces cerevisiae S288c, UniProt Q03530). In kind it is biochemical.
Test [20] deals with 1-acylglycerol-3-phosphate O-acyltransferase ABHD5/Perilipin-5 (Homo sapiens, UniProt Q00G26+Q8WTS1). The test can be described thus: Luminescence-based biochemical high throughput dose response assay for inhibitors of the interaction of the lipase co-activator protein, abhydrolase domain containing 5 (ABHD5) with perilipin-5 (MLDP; PLIN5) (2K validation set). [Related pubchem assays (depositor defined):AID493035, AID493241].

The next test has as its target Perilipin-1/ABHD5 (Homo sapiens, UniProt O60240+Q8WTS1). The experiment in a line: Luminescence-based biochemical high throughput dose response assay for inhibitors of the interaction of the lipase co-activator protein, abhydrolase domain containing 5 (ABHD5) with perilipin-1 (PLIN1) (2K validation set). [Related pubchem assays (depositor defined):AID493027, AID493057].

Chain of Alpha-2A adrenergic receptor (P08913 whole entry): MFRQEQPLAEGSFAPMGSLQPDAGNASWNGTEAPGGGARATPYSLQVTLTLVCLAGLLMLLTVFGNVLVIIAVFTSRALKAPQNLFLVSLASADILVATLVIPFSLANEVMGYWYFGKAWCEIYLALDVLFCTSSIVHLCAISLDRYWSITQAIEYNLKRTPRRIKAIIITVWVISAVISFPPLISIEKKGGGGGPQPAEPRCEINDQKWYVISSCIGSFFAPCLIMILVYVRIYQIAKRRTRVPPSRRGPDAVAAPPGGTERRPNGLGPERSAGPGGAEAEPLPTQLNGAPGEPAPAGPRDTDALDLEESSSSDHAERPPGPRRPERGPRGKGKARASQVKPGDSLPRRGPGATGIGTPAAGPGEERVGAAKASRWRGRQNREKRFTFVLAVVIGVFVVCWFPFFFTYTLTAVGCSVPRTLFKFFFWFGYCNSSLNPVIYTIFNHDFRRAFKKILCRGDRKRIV
Chain of D(3) dopamine receptor (P35462 whole entry): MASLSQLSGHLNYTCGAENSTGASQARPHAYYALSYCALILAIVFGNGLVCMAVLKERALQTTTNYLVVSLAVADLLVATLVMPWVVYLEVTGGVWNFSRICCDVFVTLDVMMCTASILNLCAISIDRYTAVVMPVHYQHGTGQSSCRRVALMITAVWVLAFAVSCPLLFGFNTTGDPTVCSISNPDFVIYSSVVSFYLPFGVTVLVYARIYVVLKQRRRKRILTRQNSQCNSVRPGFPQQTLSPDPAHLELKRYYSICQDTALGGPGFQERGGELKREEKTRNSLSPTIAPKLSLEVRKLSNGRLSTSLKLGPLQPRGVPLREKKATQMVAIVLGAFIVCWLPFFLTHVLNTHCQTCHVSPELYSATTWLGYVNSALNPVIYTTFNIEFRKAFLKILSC
Chain of Perilipin-1/ABHD5 (Q8WTS1 whole entry, the tested form may be a part): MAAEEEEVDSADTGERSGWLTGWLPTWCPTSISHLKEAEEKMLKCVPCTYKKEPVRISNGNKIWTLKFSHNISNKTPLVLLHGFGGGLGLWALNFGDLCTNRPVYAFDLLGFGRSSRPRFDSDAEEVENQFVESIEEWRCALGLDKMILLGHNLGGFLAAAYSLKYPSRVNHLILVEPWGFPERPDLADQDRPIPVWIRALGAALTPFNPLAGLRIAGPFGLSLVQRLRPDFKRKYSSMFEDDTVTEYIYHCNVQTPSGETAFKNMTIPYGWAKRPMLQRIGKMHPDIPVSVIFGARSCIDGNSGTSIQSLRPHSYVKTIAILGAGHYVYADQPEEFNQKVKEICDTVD
Chain of Perilipin-1/ABHD5 (O60240 whole entry, the tested form may be a part): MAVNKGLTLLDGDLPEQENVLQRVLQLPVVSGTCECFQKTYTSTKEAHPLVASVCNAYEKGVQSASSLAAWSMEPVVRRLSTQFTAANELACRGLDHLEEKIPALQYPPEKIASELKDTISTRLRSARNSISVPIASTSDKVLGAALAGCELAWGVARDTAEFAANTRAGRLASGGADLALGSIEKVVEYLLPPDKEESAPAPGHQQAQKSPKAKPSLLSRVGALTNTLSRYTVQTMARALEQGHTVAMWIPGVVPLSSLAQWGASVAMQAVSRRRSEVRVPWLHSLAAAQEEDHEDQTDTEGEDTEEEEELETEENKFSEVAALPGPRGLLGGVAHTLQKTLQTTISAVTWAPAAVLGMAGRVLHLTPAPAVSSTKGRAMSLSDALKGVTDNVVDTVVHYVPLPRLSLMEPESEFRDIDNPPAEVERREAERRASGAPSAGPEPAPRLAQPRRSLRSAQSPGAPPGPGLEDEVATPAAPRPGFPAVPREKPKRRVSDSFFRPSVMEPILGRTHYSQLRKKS
Chain of Lysosomal acid glucosylceramidase (P04062 whole entry): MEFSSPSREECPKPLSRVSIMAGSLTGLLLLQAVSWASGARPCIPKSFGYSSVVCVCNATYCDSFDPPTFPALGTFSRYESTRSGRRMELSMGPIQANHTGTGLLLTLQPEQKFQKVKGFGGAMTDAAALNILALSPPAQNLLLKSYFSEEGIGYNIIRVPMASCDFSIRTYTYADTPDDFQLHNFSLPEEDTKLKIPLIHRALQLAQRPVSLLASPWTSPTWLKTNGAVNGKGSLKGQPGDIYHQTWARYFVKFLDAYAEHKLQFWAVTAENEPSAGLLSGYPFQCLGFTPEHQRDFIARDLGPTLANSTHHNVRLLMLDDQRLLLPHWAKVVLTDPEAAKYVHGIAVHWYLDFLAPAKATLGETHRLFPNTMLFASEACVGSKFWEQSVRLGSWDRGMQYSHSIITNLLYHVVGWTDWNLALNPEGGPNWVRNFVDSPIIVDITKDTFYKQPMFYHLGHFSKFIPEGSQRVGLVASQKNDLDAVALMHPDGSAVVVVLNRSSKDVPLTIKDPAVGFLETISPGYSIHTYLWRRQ
Chain of 5-hydroxytryptamine receptor 2B (P41595 whole entry): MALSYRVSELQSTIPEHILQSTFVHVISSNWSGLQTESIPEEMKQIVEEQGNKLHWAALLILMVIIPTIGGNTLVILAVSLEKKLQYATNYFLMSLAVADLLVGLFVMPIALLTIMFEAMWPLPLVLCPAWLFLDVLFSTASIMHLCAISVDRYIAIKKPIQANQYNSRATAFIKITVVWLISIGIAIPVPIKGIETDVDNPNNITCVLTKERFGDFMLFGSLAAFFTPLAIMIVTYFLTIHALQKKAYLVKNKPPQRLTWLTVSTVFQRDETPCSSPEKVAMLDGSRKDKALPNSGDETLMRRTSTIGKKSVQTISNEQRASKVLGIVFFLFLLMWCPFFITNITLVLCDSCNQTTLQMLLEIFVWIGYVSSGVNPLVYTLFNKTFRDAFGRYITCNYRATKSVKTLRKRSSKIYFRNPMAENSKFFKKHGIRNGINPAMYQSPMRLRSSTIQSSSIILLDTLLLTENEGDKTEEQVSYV
Chain of ORF 73 (O40947 whole entry): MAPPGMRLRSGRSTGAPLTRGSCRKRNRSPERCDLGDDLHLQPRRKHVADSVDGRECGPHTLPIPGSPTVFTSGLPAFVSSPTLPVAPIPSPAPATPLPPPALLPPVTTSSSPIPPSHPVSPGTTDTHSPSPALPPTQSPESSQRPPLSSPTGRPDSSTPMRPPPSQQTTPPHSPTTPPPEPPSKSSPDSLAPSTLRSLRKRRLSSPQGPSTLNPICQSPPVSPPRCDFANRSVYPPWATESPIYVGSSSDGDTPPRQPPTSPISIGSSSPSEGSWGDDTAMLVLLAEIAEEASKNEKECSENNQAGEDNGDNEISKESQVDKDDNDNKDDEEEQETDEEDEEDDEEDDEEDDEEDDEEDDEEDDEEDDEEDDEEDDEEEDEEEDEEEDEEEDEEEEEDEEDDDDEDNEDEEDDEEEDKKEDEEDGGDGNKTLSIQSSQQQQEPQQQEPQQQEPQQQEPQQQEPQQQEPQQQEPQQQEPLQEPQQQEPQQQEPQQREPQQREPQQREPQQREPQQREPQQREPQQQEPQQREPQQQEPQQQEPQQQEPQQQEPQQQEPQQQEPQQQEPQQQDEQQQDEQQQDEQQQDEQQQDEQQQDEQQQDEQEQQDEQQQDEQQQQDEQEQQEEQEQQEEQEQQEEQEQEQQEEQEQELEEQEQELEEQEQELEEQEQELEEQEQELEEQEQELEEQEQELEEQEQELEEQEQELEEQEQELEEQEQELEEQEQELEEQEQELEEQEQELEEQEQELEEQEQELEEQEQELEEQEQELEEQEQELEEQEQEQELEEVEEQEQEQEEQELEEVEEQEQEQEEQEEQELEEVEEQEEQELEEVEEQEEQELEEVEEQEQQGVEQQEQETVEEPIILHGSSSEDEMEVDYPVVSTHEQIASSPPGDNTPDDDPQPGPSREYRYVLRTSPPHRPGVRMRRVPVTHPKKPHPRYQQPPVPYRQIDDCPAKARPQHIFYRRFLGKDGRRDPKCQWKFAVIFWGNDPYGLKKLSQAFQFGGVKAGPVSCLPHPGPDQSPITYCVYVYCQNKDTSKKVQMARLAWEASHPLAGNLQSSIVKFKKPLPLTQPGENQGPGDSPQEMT
Chain of Alpha-2B adrenergic receptor (P18089 whole entry): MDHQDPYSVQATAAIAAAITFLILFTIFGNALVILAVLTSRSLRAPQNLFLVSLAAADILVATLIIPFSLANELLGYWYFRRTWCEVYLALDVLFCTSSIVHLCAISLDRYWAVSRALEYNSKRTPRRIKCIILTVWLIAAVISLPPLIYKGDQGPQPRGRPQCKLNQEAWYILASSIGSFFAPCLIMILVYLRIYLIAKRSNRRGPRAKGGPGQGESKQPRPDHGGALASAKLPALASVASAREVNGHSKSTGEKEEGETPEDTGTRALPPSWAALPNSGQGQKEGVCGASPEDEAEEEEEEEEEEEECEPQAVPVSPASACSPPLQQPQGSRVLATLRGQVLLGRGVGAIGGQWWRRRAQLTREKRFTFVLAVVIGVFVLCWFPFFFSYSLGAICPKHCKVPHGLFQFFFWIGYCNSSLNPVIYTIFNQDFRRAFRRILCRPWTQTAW
Chain of Muscarinic acetylcholine receptor M1 (P11229 whole entry): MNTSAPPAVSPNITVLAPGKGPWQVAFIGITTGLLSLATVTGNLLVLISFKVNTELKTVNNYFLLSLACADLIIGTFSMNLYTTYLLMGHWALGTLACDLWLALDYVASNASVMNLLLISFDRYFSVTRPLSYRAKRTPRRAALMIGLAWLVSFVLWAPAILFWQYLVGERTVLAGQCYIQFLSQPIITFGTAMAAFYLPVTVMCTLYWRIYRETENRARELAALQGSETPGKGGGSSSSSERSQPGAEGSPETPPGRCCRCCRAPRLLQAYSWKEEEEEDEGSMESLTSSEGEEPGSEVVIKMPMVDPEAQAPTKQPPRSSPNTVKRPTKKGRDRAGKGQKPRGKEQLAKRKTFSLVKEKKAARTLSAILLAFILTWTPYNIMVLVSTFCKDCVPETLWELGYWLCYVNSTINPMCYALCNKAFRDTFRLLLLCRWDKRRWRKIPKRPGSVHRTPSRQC

On to `CCCSc1nc(O)c(CC)c(=O)n1C(C)CC` (stereo not given), for which the EC50 in test [1] is > 100 µM (inactive).

`COc1ccc(-c2csc(N(CCCN(C)C)C(=O)c3ccccc3Cl)n2)cc1`: the CC50 in the test with Vero [2] was 20.2 µM (active); in the test with Vero [3] it was 9.54 µM (active); with Vero [4] it was 28.4 µM (active). For the same molecule, the IC50 in [5] was 5.37 µM (active); in the test with Vero [6], 29.5 µM (active); in the test on Vero [7], > 25 µM (active).

In the case of `N=C1/C(=C/c2ccc(-c3cccc(C(=O)O)c3)o2)C(=O)N=C2SC(CC(=O)N3CCOCC3)=NN12`, the AC50 at ORF 73 was 67.7 µM (active). In [8], the IC50 was 3.21 µM (active).

Take `CC(=O)c1ccc2c(c1)Nc1ccccc1S2`: the CC50 in [9] was 18.5 µM (active); in the test on HT-29, > 20 µM (not active). Further, the EC50 in test [10] was > 50 µM (not active). For the same molecule, the Ki was > 10 µM (inactive) in test [11]; 0.3 µM (active) in test [12]; > 10 µM (inactive) in test [13]; > 10 µM (inactive) at D(3) dopamine receptor; > 10 µM (inactive) in [14]; > 10 µM (inactive) in [15]. Moreover, the Ki in [16] and in test [17] was > 10 µM (inactive) each time. Also, in [18], the IC50 was 31.6 µM (active).

On to `c1ccc(Nc2cccc(Nc3ccccc3)n2)cc1`, for which the half-inhibitory concentration (IC50) in test [19] is > 50 µM (not active). Besides, the AC50 at CAAX prenyl protease 2 is 13.3 µM (active).

`CCCCC/C=C\C[C@H](O)/C=C/c1cccc(C[C@H](O)CCCCO)n1`: the IC50 in test [20] is 5.28 µM (active); at Perilipin-1/ABHD5 it was 5.05 µM (active).

The EC50 is the concentration giving half of the maximal effect. The CC50 is the concentration that lowers cell viability or growth by half. What is called IC50 is the concentration needed to halve the response being measured. By AC50 is commonly meant the concentration at which the activity in the assay is half-maximal. A word on the Ki: it is the dissociation constant of the complex between target and ligand, obtained from inhibition or displacement.
